One test deals with TNBS-induced UC rats. The experiment in a line: TNBS-induced UC rat model, different administration routes. The class given is in vivo. The following applies: for Gross morphological injury score / Ulcer ratio: 5 days. The text has this: 4 Dose Designing and Grouping • 4.1 Grouping: quarantine-qualified 84 rats were all used for making UC model. The successful rats were randomly divided into 6 groups: the model control group, the positive control group, the andrographolide low-dose intragastric group, the andrographolide high-dose intragastric group, the andrographolide low-dose intracolonical group and the andrographolide high-dose intracolonical group, 14 rats per group. • 4.2 Dose: the same doses were adopted in both intragastric and intracolonical groups. Animals were not treated in the model control group, the positive control group (mesalazine enteric tablet, 420 mg·kg^−1·d^−1), the andrographolide low-dose intragastric group (30 mg·kg^−1·d^−1), the andrographolide high-dose intragastric group (90 mg·kg^−1·d^−1), the andrographolide low-dose intracolonical group (30 mg·kg^−1·d^−1) and the andrographolide high-dose intracolonical group (90 mg·kg^−1·d^−1).
5. Method • 5.1 Method of making UC model: the rats were anesthetized. 2 mm-diameter latex tube was gently inserted into the position about 8 cm inside the body of the rats through anus, and TNBS in 50% ethanol solution (TNBS 125 mg/kg) was injected into intestinal lumen with an injector by one time, 0.5 ml/rat. The tail of the rat was lifted up for 30 s to make the model making agent (i.e., TNBS) fully infiltrate into the intestinal lumen of the rats. • 5.2 Method of administration: the same dose (1 mL/100 g) was adopted in both intragastric and intracolonical administration, once daily for consecutive 5 days. • 5.3 Method for sampling in experiment: 2 hours after the last administration, the rats were killed by cervical vertebra dislocation and abdomen was opened to separate the colon. Along mesenteric side, the intestinal lumen was cut and rinsed with 4° C. normal saline and spread on a plastic plate. • 5.4 Scoring method for colon gross morphological injury was referred to scoring method for mucosal injury (Bjelkengren G, Aronsen K F, Augustsson N E, etc. Radioprotective effect of local administration of lysine vasopressin and triglycyl lysine vasopressin on the rectal mucosa in rats[J]. Acta Oncol, 1995, 34(4):487-92) to record the mucosal injury score: dotted line blooding and small red spots (<1 mm): 1 score, piece blooding and big red spots (=1 mm): 3 score; and erosion and ulcer: 5 score.
Data were expressed as mean+standard deviation (x±S). All numerical variables were analyzed with SPSS13.0 software by one-way ANOVA. T-test analysis was used for inter-group comparison.

For test [1], the system named is TNBS-induced colitis mice. The experiment in a line: TNBS-induced UC (colitis) mouse model. The class given is in vivo. The following applies: for Body weight / Colon weight: oral twice daily; for Body weight / Colon weight / Colon scores / Colon indices / Decrease rate of colon specific weight: 7 days; for Colon scores: histopathological score 0-4; for Colon indices: percentage of colon weight to body weight; for Decrease rate of colon specific weight: vs model control group. The protocol: 5% (w/v) TNBS solution was diluted with double-distilled water and mixed with 50% (v/v) ethanol in equal volume to have 1.5% (w/v) TNBS solution. In the model control group, the mice were anesthetized with 1 wt % pentobarbital solution at a dose of 0.05 ml/10 g body weight. After being anesthetized, the mice were administrated with 1.5% (w/v) TNBS solution at a dose of 0.1 ml/mouse by gently inserting stomach perfusion device to about 3 cm depth via anus and arriving at the colon, and the IBD was induced. In the saline group, the saline was gently injected into the colon at a dose of 0.1 ml/mouse. In the normal control group, 50% (v/v) ethanol was gently injected into the colon at a dose of 0.1 ml mouse.
After one week adaptive feeding, all animals were randomly divided into 5 groups according to body weight, 10 mice in one group: the normal control group, the model control group, the andrographolide low-dose group (20 mg/kg/d), the andrographolide high-dose group (40 mg/kg/d) and the positive control group (Sulfasalazine group, 300 mg/kg/d). Two hours after making model, the animals in each treating groups were orally administrated twice daily with the andrographolide and once daily in the positive control group. After successive administration for 7 days, the abdomen was opened 24 hours after the last administration to observe adhesion degree between the colon and other organs. The colon was separated and weighed.
1. Body weight: after making model, body weight was measured every day to observe the change in the animals.
2. Evaluation of inflammation: the abdomen was opened 24 hours after the last administration to observe adhesion degree between the colon and other organs. Every segment of the colon was taken out and weighed to calculate the percentage of the colon weight to body weight, as the colon index. The formula was presented as follows: Decrease rate of colon specific weight=(colon index of the model control group−colon index of the treatment group)/colon index of the model control group×100%
3. Histopathological examination: a part of the colon was taken to prepare the pathological section, and the standard for score was as follows: • 0 score, no inflammatory symptoms; • 1 score, low-grade inflammation with no structure change; • 2 score, low-grade leukocyte infiltration; • 3 score, high-grade leukocyte infiltration, high vascular density, crypt extension, thickened colon wall and superficial ulcer • 4 score, high-grade leukocyte infiltrating exceeding to mucous layer, crypt extension, decrease of goblet cell, high vascular density, thickened colon wall and extensive ulcer
SPSS11.5 software was used for analysis and the data were expressed as x±S. Variance analysis was used for comparison of significant difference among groups.

Where [2] appears, read: andrographolide high-dose 90 mg/kg, intracolonical.
[3] abbreviates: andrographolide high-dose 90 mg/kg, intragastric.
Setting [4] is: andrographolide low-dose 30 mg/kg, intracolonical.
The mark [5] stands for this setting: andrographolide low-dose 30 mg/kg, intragastric.
Where [6] appears, read: andrographolide high-dose 40 mg/kg/d.
[7] abbreviates: andrographolide low-dose 20 mg/kg/d.

SMILES strings stand for the structures. Marks after values point to notes of the source that are not given here.

For `C=C1CC[C@@H]2[C@](C)(CO)[C@H](O)CC[C@@]2(C)[C@@H]1C/C=C1/C(=O)OC[C@H]1O` [Andrographolide], in the test with TNBS-induced UC rats (setting [2]), the “Gross morphological injury score” value was 1.96 ± 1.09 and the Ulcer ratio is 17.21** %. In the test on TNBS-induced UC rats (setting [3]), the “Gross morphological injury score” value was determined as 3.25 ± 1.98 and the Ulcer ratio is given as 29.21** %. The “Formless watery stool symptoms, course” value in the test with TNBS-induced UC rats (andrographolide high-dose intragastric and intracolonical groups, 90 mg/kg) is “totally disappeared on the 4th˜5th days”. In the test on TNBS-induced UC rats (setting [4]), the “Gross morphological injury score” value turned out to be 6.53 ± 2.12 and the Ulcer ratio is 38.54* %. Besides, in the test on TNBS-induced UC rats (setting [5]), the “Gross morphological injury score” value is listed as 6.71 ± 2.57 and the Ulcer ratio is recorded as 45.69* %. For the same molecule, the “Body weight increase compared with the model control group” value in test [1] (FIG. 1, treated groups) is given as “increased faster than that in the model control group”. Besides, in test [1] (setting [6]), the Body weight is given as 20.95 ± 1.09 g, the Colon weight turned out to be 0.29 ± 0.09 g, the Colon scores is given as 1.8** and the Colon indices turned out to be 1.38 ± 0.46. Moreover, in test [1] (setting [6]), the “Decrease rate of colon specific weight” value is on record as 58.96%. In test [1] (setting [7]), this molecule registered a Body weight of 19.95 ± 2.05 g, a Colon weight of 0.43 ± 0.12 g, a Colon scores of 3.2 and a Colon indices of 2.24 ± 0.90. In addition, in test [1] (setting [7]), the “Decrease rate of colon specific weight” value is on record as 33.20%. In addition, the “Intestinal elasticity compared with the model control group” value in test [1] (treated groups, after 7 days) is listed as “higher than that in the model control group”.
